Assay results reported in US12448369B2 (Edgewise Therapeutics, Inc., priority 2023, dated 2025).

Assays:
[1] = target: T1, Porcine ventricle myofibrils (ventricular myosin ATPase) (Sus scrofa, UniProt P79293); experiment: Myofibril ATPase assay, porcine ventricle myofibrils; assay type: biochemical, porcine (Yucatan minipigs); settings: porcine ventricle myofibrils
T1 construct: Myofibrils from porcine cardiac muscle was isolated from the left ventricle of Yucatan minipigs; tissue Exemplar Genetics; host or cells: left ventricle of Yucatan minipigs, myofibrils prepared in house
T1 sequence (P79293 whole entry): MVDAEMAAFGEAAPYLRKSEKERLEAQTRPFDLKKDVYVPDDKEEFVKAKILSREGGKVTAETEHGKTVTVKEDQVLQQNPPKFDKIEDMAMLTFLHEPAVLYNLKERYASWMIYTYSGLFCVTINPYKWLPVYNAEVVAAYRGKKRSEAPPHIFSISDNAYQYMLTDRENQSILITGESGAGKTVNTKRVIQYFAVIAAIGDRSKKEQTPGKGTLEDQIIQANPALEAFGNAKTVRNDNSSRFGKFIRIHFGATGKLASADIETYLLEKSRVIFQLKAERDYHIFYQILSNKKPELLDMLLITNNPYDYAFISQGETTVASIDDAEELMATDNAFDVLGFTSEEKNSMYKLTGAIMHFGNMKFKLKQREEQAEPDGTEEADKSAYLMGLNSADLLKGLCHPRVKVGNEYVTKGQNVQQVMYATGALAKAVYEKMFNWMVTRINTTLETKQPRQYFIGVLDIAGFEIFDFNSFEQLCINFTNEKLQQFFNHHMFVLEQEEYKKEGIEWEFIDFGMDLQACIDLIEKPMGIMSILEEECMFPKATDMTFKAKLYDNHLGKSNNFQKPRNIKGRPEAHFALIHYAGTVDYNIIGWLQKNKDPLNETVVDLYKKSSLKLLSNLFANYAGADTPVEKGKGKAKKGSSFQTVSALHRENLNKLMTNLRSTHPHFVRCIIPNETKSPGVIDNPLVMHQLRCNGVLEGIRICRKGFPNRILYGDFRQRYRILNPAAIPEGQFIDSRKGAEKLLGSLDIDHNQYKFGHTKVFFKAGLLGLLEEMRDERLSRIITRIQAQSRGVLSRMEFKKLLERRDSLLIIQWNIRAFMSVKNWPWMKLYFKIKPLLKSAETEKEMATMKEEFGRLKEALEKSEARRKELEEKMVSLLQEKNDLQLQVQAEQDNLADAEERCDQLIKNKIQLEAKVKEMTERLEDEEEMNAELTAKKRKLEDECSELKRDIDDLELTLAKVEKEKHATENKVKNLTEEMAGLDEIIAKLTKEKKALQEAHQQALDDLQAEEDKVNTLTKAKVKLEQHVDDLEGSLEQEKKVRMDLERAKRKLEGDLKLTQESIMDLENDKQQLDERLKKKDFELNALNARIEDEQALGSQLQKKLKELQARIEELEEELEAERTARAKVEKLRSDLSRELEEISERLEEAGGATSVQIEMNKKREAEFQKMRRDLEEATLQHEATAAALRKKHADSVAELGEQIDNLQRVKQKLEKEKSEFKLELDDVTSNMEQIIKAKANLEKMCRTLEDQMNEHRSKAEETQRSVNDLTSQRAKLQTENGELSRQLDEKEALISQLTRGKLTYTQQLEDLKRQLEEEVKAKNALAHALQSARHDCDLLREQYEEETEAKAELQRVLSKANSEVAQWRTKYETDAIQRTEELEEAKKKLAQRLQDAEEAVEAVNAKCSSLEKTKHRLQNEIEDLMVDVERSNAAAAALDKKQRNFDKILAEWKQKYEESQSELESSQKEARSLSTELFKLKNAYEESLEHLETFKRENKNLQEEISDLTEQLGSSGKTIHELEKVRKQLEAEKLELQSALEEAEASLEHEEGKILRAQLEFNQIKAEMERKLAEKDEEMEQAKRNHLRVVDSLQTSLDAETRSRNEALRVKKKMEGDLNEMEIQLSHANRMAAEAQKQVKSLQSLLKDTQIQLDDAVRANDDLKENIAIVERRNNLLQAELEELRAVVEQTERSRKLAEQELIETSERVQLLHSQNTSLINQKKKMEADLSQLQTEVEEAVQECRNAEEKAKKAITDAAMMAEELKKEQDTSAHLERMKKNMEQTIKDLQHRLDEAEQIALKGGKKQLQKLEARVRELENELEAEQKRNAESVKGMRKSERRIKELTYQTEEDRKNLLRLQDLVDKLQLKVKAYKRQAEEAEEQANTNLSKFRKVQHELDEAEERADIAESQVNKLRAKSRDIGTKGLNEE
Procedure: (§1) Example 1. Myofibril ATPase Assay
(§2) Myofibril ATPase assays are known in the art to be useful in evaluating small molecules for the treatment of HCM and other cardiac indications. Myosin ATPase activity is assessed by using a coupled reaction system, in which ADP generated by the myosin ATPase function is coupled to the disappearance of NADH through the pyruvate kinase/lactate dehydrogenase (PK-LDH) system. ATPase activity produces ADP, which is used as a substrate for PK to produce pyruvate and regenerate ATP. The pyruvate is then used as a substrate by LDH to oxidize NADH to NAD+. The rate of the reaction is monitored through the time-dependent disappearance of NADH using absorbance at 340 nm, which, when the couple system is in stoichiometric excess, is directly correlated to the ATPase activity of the myosin. Inhibition of ATPase activity by the assayed compounds is indicated by a reduced rate of NADH loss, relative to vehicle-treated controls, over the experimental time window. Activation of ATPase activity by the assayed compounds is indicated by an increased rate of NADH loss, relative to vehicle-treated controls, over the experimental time window. Rabbit Psoas, Porcine atria, and Porcine ventricle are the primary sources of myofibril material.
(§3) Materials: The following stock solutions and reagents were used in the Myofibril ATPase Assay:
(§4) Stock Solutions of pCa buffer. Combine PIPES, CaCl2, and EGTA solutions with water. Adjust pH to 7.0 and bring final volume to 100 mL.
(§5) Buffer A & Buffer B. Prepare buffers A and B according to the table below.
(§6) Myofibril ATPase Assay Procedure: BSA, ATP, NADH, PEP, and DTT solutions were thawed at room temperature, then transferred to ice. Pellet-frozen myofibrils were transferred with approximately twice the required volume into a sufficiently large tube and capped. Myofibrils were thawed by rolling in a water bath for approximately 15 min at room temperature and cooled on ice. Buffers A and B were prepared by adjusting volumes as necessary for required number of wells and stored on ice. 0.5 μL of the compounds to be assayed were added into wells. 25 μL of Buffer A was dispensed into the wells, followed by 25 μL of Buffer B. The wells were measured for absorbance at 340 nm, using a kinetic protocol in which the wells are read every 1.5-2 min for 75 min. Assay data analysis was performed using a python script that filtered the raw data to retain those points falling between a starting and ending time and between a maximum and minimum absorbance, then used the filtered time-domain 340 nm absorbance data in each well to calculate a slope via linear regression analysis in units of mAU/min. Compound slopes were normalized between 100% and 0% activity, where 100% represented the slope of wells containing only compound vehicle, and fit to a 4-parameter logistic model. In addition to the fit parameters, the EC25% values were calculated, relative to the 100% normalized value. Additionally, the Y125 values were calculated for compounds that increased myosin ATP-ase activity. Fit parameters, calculated effective concentrations, filtered raw data, and calculated slopes were exported, in addition to compound-specific graphs of normalized ATPase activity versus concentration in μM. Each value reported in Table 5, Table 6, and Table 7 is either a Y75 value or a Y125 value. Values without a double cross sign, ‡, are Y75 values, which reflect the concentration required to reduce myosin ATP-ase activity by 25% (e.g., Y-axis activity value is 75% of initial value), relative to myosin ATP-ase activity in the absence of exogenous compound.
Cardiac Myofibril Isolation:
Myofibrils from porcine cardiac muscle was isolated from the left ventricle of Yucatan minipigs. Myofibrils were prepared using a method based upon those described in Herrmann et al. (1993) and summarized here. […]

[2] = system: Rabbit Psoas myofibrils (skeletal myosin ATPase); experiment: Myofibril ATPase assay, rabbit psoas (skeletal) myofibrils; assay type: biochemical; settings: rabbit psoas myofibrils
Procedure: as §1, §2, §3, §4, §5, §6
Skeletal Myofibril Isolation:
(§7) Myofibrils from various animals and tissue types were acquired from a variety of sources: rabbit psoas muscle was purchased from Pel-Freez Biologicals (Rogers, AR) and porcine cardiac muscle was purchased from Exemplar Genetics. All myofibrils were prepared using a method based upon those described in Herrmann et al. (1993) and summarized here. […]

[3] = system: Porcine atria myofibrils (atrial myosin ATPase); experiment: Myofibril ATPase assay, porcine atria myofibrils; assay type: biochemical; settings: porcine atria myofibrils
Procedure: as §1, §2, §3, §4, §5, §6, §7

[4] = Y75 value (75% activity relative to no compound)

Compound	Ventricular EC25 ([1]; Y75 value (no ‡ mark))	Skeletal EC25 ([2]; Y75 value (no ‡ mark))	Atrial EC25 ([3]; Y75 value (no ‡ mark))	Ventricular EC25 ([1]; Y75 value)	Skeletal EC25 ([2]; Y75 value)	Atrial EC25 [3, 4]
C[C@H](NC(=O)[C@@H](C)c1cc2c(F)c(F)ccc2[nH]c1=O)c1ccc(F)cc1F (single isomer, unassigned) [compound 110]	42600 nM	100000 nM	520 nM			
C[C@H](NC(=O)[C@H](C)c1cc2c(F)c(F)ccc2[nH]c1=O)c1ccc(F)cc1F (single isomer, unassigned) [compound 111]	100000 nM	110 nM	100 nM			
Cc1nc(C#N)cnc1[C@H](C)NC(=O)Cc1c(C)c2nc(C(F)(F)F)ccc2[nH]c1=O (single isomer, unassigned) [compound 139]				180 nM	20 nM	80 nM
Cc1c([C@@H](C)C(=O)N[C@@H](C)c2ccc(C#N)cc2F)c(=O)[nH]c2ccnc(C#N)c12 (single isomer, unassigned) [compound 173]				300 nM	20 nM	220 nM
Cc1nccc2[nH]c(=O)c(CC(=O)N[C@@H]3COc4cc(C#N)cc(F)c43)c(C)c12 (single isomer, unassigned) [compound 177]				90 nM	20 nM	60 nM
Cc1nccc2[nH]c(=O)c(CC(=O)N[C@H]3CNc4cc(F)cc(F)c43)c(C)c12 (single isomer, unassigned) [compound 182]				35910 nM	1760 nM	8600 nM
Cc1nccc2[nH]c(=O)c([C@@H](C)C(=O)N[C@H](C)c3ccc(C#N)cc3F)c(C)c12 (single isomer, unassigned) [compound 183]				6370 nM	750 nM	330 nM
Cc1c(CC(=O)N[C@H]2c3c(F)cc(F)cc3OC2(C)C)c(=O)[nH]c2ccnc(C#N)c12 (single isomer, unassigned) [compound 187]				1360 nM	50 nM	110 nM
Cc1c(CC(=O)N[C@@H]2c3c(F)cc(F)cc3OC2(C)C)c(=O)[nH]c2ccnc(C#N)c12 (single isomer, unassigned) [compound 188]				39560 nM	26500 nM	2430 nM
Cc1nccc2[nH]c(=O)c(CC(=O)N[C@H]3c4c(F)cc(F)cc4OC3(C)C)c(C)c12 (single isomer, unassigned) [compound 189]				13140 nM	870 nM	1220 nM
Cc1nccc2[nH]c(=O)c(CC(=O)N[C@@H]3c4c(F)cc(F)cc4OC3(C)C)c(C)c12 (single isomer, unassigned) [compound 190]				45620 nM	100000 nM	8110 nM
Cc1nccc2[nH]c(=O)c([C@@H](C)C(=O)N[C@H](C)c3ncc(C#N)cc3F)c(C)c12 (single isomer, unassigned) [compound 191]				100000 nM	4040 nM	1730 nM
Cc1nccc2[nH]c(=O)c([C@@H](C)C(=O)N[C@@H](C)c3ccc(C#N)cc3F)c(C)c12 (single isomer, unassigned) [compound 195]				2970 nM	110 nM	300 nM
Cc1nccc2[nH]c(=O)c([C@H](C)C(=O)N[C@@H](C)c3ccc(C#N)cc3F)c(C)c12 (single isomer, unassigned) [compound 196]				4230 nM	180 nM	110 nM
Cc1nccc2[nH]c(=O)c(CC(=O)N[C@@H]3CCc4cc(C#N)cc(F)c43)c(C)c12 (single isomer, unassigned) [compound 197]				49430 nM	4230 nM	2800 nM
Cc1nccc2[nH]c(=O)c(CC(=O)N[C@H]3CCc4cc(C#N)cc(F)c43)c(C)c12 (single isomer, unassigned) [compound 198]				180 nM	20 nM	310 nM
Cc1nccc2[nH]c(=O)c(CC(=O)N[C@@H](C)c3ccc(S(C)(=O)=O)cc3F)c(C)c12 (single isomer, unassigned) [compound 207]				100000 nM	1320 nM	100000 nM
Cc1c(CC(=O)N[C@H](C)c2ccc(C#N)cc2F)c(=O)[nH]c2ccc(C(F)(F)F)nc12 (single isomer, unassigned) [compound 208]				9680 nM	150 nM	2160 nM

Now from value to molecule:

Ventricular EC25 ([1]; Y75 value (no ‡ mark))	Skeletal EC25 ([2]; Y75 value (no ‡ mark))	Atrial EC25 ([3]; Y75 value (no ‡ mark))	Ventricular EC25 ([1]; Y75 value)	Skeletal EC25 ([2]; Y75 value)	Atrial EC25 [3, 4]	Compound
310 nM	30 nM	60 nM				Cc1c([C@H](C)C(=O)N[C@@H](C)c2ccc(F)cc2F)c(=O)[nH]c2ccc(F)c(F)c12 (single isomer, unassigned) [compound 112]
			1170 nM	2850 nM	350 nM	Cc1nc(C#N)cnc1[C@@H](C)NC(=O)Cc1c(C)c2nc(C(F)(F)F)ccc2[nH]c1=O (single isomer, unassigned) [compound 138]
			550 nM	80 nM	80 nM	Cc1c([C@H](C)C(=O)N[C@@H](C)c2ccc(C#N)cc2F)c(=O)[nH]c2ccnc(C#N)c12 (single isomer, unassigned) [compound 174]
			20240 nM	1840 nM	4550 nM	Cc1nccc2[nH]c(=O)c(CC(=O)N[C@H]3COc4cc(C#N)cc(F)c43)c(C)c12 (single isomer, unassigned) [compound 178]
			2510 nM	90 nM	310 nM	Cc1nccc2[nH]c(=O)c(CC(=O)N[C@@H]3CNc4cc(F)cc(F)c43)c(C)c12 (single isomer, unassigned) [compound 181]
			100000 nM	100000 nM	100000 nM	Cc1nccc2[nH]c(=O)c([C@H](C)C(=O)N[C@H](C)c3ccc(C#N)cc3F)c(C)c12 (single isomer, unassigned) [compound 184]
			14650 nM	550 nM	590 nM	Cc1nccc2[nH]c(=O)c([C@H](C)C(=O)N[C@H](C)c3ncc(C#N)cc3F)c(C)c12 (single isomer, unassigned) [compound 192]
			5940 nM	750 nM	470 nM	Cc1nccc2[nH]c(=O)c([C@@H](C)C(=O)N[C@@H](C)c3ncc(C#N)cc3F)c(C)c12 (single isomer, unassigned) [compound 193]
			100000 nM	1220 nM	5870 nM	Cc1nccc2[nH]c(=O)c([C@H](C)C(=O)N[C@@H](C)c3ncc(C#N)cc3F)c(C)c12 (single isomer, unassigned) [compound 194]
